From patent publication US20190274334A1 (MARS, INCORPORATED, priority 2016, published 2019) come the findings set out here.

pEC50: −log10 of the molar value. Read-outs that look alike come from different tables or passages of the source.

The test has as its target feline CaSR (f:CaSR) (Felis catus, UniProt A0ABI7YY68). Put plainly: cell-based. In kind it is cell-based.
Where [1] appears, read: double-injection protocol, agonist mode and PAM mode.
The mark [2] stands for this setting: PAM mode, CaCl2 injected at EC20, read-out: EC50 (PAM).
Where [3] appears, read: agonist mode, read-out: EC50 (Agonist).

feline CaSR (f:CaSR), sequence (A0ABI7YY68 entry or part of it): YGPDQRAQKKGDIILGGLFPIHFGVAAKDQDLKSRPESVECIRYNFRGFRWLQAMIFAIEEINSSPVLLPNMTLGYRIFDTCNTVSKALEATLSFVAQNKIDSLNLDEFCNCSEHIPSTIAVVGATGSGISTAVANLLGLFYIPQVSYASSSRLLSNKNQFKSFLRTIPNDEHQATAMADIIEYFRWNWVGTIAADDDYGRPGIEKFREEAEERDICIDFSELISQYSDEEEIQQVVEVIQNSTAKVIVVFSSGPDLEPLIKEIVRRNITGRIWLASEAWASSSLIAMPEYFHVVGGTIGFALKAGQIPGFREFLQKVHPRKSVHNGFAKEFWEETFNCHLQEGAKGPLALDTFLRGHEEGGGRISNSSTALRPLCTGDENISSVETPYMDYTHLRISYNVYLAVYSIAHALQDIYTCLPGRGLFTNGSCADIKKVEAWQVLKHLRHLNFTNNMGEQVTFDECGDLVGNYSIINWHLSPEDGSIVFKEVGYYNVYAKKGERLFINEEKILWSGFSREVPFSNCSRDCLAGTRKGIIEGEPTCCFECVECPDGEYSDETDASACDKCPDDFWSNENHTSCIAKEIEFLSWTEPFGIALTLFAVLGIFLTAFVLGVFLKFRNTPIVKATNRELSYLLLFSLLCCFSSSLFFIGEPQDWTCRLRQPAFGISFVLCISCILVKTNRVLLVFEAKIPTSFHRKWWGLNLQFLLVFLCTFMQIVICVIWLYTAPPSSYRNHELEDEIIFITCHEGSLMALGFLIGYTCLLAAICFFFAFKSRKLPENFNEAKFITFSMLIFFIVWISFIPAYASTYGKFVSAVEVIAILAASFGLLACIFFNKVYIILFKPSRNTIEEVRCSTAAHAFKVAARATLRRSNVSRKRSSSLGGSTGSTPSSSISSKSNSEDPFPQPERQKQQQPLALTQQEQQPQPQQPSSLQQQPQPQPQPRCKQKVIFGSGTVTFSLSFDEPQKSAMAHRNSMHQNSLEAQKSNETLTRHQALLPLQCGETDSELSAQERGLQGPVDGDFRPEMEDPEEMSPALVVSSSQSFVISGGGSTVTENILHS

Turning to `NC(=O)CC[C@H](NC(=O)CC[C@H](N)C(=O)O)C(=O)O` [H-Glu(Gln-OH)—OH], under setting [1], the “Activity Type” value is listed as “Agonist”.

By pEC50 is commonly meant the EC50 on a negative log10 scale, so that one unit is a factor of ten. Consider `COC(=O)C(NC1CCc2c(F)cccc21)c1cccc(C#N)c1` (centres unmarked) [methyl 2-(3-cyanophenyl)-2-((4-fluoro-2,3-dihydro-1H-inden-1-yl)amino)acetate], for which, under setting [2], the negative logarithm of the EC50 (pEC50) is 4.23. Besides, under setting [1], the “Activity Type” value is given as “PAM”.

With `Cc1ccc(C(C)NC(C)c2cc3ccccc3[nH]2)cc1C` (centres unmarked) [N-(1-(1H-indol-2-yl)ethyl)-1-(3,4-dimethylphenyl)ethanamine], the “Activity Type” value under setting [1] was “PAM”.

`COC(=O)C(N)CC(=O)O` (racemic) [DL-Aspartic acid alpha-methyl ester]: the “Activity Type” value is given as “Agonist”.

In the case of `COc1ccccc1C(CCNC(C)c1ccc(Cl)cc1)c1ccc(OC(C)C)cc1` (centres unmarked) [N-(1-(4-chlorophenyl)ethyl)-3-(4-isopropoxyphenyl)-3-(2-methoxyphenyl)propan-1-amine], the pEC50 under setting [2] was 6.15. Under setting [1], the “Activity Type” value is given as “PAM”.

On to `CC(NCCC(c1ccccc1)c1ccco1)c1ccccc1` (centres unmarked) [3-(furan-2-yl)-3-phenyl-N-(1-phenylethyl)propan-1-amine], for which, under setting [2], the negative-log EC50 (pEC50) was 6.34. Further, the “Activity Type” value under setting [1] was “PAM”.

As for `N[C@@H](CCC(=O)N[C@@H](CCC(=O)N[C@@H](CCC(=O)O)C(=O)O)C(=O)O)C(=O)O` [H-Glu(Glu(Glu-OH)—OH)—OH], the “Activity Type” value is on record as “Agonist EC50 2.35 mM”. Further, the negative logarithm of the EC50 (pEC50) under setting [3] is 2.63.

`[Pr]` [Praseodymium]: under setting [3], the pEC50 is 3.40. For the same compound, under setting [1], the “Activity Type” value is reported as “Agonist”.

On to `N[C@@H](CCC(=O)N[C@@H](Cc1ccc(O)cc1)C(=O)O)C(=O)O` [γ-Glu-Tyr], for which the “Activity Type” value under setting [1] is “Agonist”.

`O=P(O)(O)CP(=O)(O)O` [Methylenediphosphonic acid]: the pEC50 under setting [3] was 2.89. For the same compound, under setting [1], the “Activity Type” value is “Agonist”.

Consider `CC(C)[C@H](NC(=O)CC[C@H](N)C(=O)O)C(=O)NCC(=O)O` [γ-Glu-Val-Gly], for which the pEC50 under setting [3] is 2.37. The “Activity Type” value under setting [1] was “Agonist”.

For `N[C@@H](C[C@H](O)C(=O)O)C(=O)O` [2S,4S-γ-Hydroxy-L-glutamic acid], the “Activity Type” value under setting [1] is “Agonist”.

As to `CSCC[C@H](NC(=O)CC[C@H](N)C(=O)O)C(=O)O` [H-Glu(Met-OH)—OH], the “Activity Type” value under setting [1] is “Agonist”.

Consider `CSC[C@H](NC(=O)CC[C@H](N)C(=O)O)C(=O)NCC(=O)O` [S-Methylglutathione], for which the “Activity Type” value under setting [1] is given as “Agonist”.

As for `Cc1ccc(C(C)(O)c2nc3ccccc3s2)c(C)c1` (centres unmarked) [1-(benzo[d]thiazol-2-yl)-1-(2,4-dimethylphenyl)ethanol], under setting [2], the pEC50 was 7.29. The “Activity Type” value under setting [1] is recorded as “PAM”.

`Cc1ccc(C(CCNC(C)c2ccccc2)c2ccco2)cc1` (centres unmarked) [3-(furan-2-yl)-N-(1-phenylethyl)-3-(p-tolyl)propan-1-amine]: the pEC50 under setting [2] was 6.12. Further, the “Activity Type” value under setting [1] is recorded as “PAM”.

In the case of `[Gd]` [Gadolinium], the negative logarithm of the EC50 (pEC50) under setting [3] is 3.53. Further, the “Activity Type” value under setting [1] is “Agonist”.

On to `N[C@@H](CCC(=O)N[C@@H](CSCc1c[nH]c2ccccc12)C(=O)NCC(=O)O)C(=O)O` [3-Glutathionyl-S-methylindole], for which the “Activity Type” value under setting [1] is reported as “Agonist”.

Regarding `CC(NCCC(Cc1ccccc1)c1ccco1)c1ccccc1` (centres unmarked) [3-(furan-2-yl)-4-phenyl-N-(1-phenylethyl)butan-1-amine], the negative-log EC50 (pEC50) under setting [2] is 6.17. The “Activity Type” value under setting [1] is “PAM”.

For the compound `N[C@@H](CCC(=O)N[C@@H](CS)C(=O)NCC(=O)O)C(=O)O` [Glutathione], the “Activity Type” value is given as “Agonist EC 50 6.39 mM”.

Regarding `COc1cc(C(O)(c2nc3ccccc3s2)C(F)(F)F)c(OC)cc1N` (centres unmarked) [1-(4-amino-2,5-dimethoxyphenyl)-1-(benzo[d]thiazol-2-yl)-2,2,2-trifluoroethanol], under setting [2], the pEC50 was 5.62. In addition, under setting [1], the “Activity Type” value is listed as “PAM”.

With `[Sr+2]` [Strontium], the “Activity Type” value under setting [1] was “Agonist”.

Consider `[Ba]` [Barium], for which the pEC50 under setting [3] is 2.93. In addition, the “Activity Type” value under setting [1] is “Agonist”.

`CC(=O)N1C=Cc2ccccc2C1CC(=O)NC(C)c1cccc(Br)c1` (centres unmarked) [2-(2-acetyl-1,2-dihydroisoquinolin-1-yl)-N-(1-(3-bromophenyl)ethyl)acetamide]: the negative logarithm of the EC50 (pEC50) under setting [2] was 4.92. Also, the “Activity Type” value under setting [1] is listed as “PAM”.

For the compound `C[C@H](NC(=O)C[C@H](N)C(=O)O)C(=O)O` [H-Asp(Ala-OH)—OH], under setting [1], the “Activity Type” value was “Agonist”.

Take `COc1ccccc1C(CCNC(C)c1ccc(Cl)cc1)c1ccco1` (centres unmarked) [N-(1-(4-chlorophenyl)ethyl)-3-(furan-2-yl)-3-(2-methoxyphenyl)propan-1-amine]: the negative-log EC50 (pEC50) under setting [2] was 5.85. Moreover, the “Activity Type” value under setting [1] was “PAM”.

For the compound `Cc1ccc(C(CCNC(C)c2cccs2)c2ccco2)cc1` (centres unmarked) [3-(furan-2-yl)-N-(1-(thiophen-2-yl)ethyl)-3-(p-tolyl)propan-1-amine], the pEC50 under setting [2] is 5.65. Besides, the “Activity Type” value under setting [1] was “PAM”.

For the compound `OCC(CNC1CCCOc2cc(Cl)ccc21)Cc1ccccn1` (centres unmarked) [3-((8-chloro-2,3,4,5-tetrahydrobenzo[b]oxepin-5-yl)amino)-2-(pyridin-2-ylmethyl)propan-1-ol], the “Activity Type” value under setting [1] is given as “PAM”.

In the case of `CC(C)Oc1ccc(C(CCNC(C)c2ccc(Cl)cc2)c2ccccc2)cc1` (centres unmarked) [N-(1-(4-chlorophenyl)ethyl)-3-(4-isopropoxyphenyl)-3-phenylpropan-1-amine], the pEC50 under setting [2] was 5.35. The “Activity Type” value under setting [1] is “PAM”.

On to `NC[C@@H]1O[C@H](O[C@H]2[C@@H](O)[C@H](O[C@@H]3[C@@H](O)[C@H](N)C[C@H](N)[C@H]3O[C@H]3O[C@H](CN)[C@@H](O)[C@H](O)[C@H]3N)O[C@@H]2CO)[C@H](N)[C@@H](O)[C@@H]1O` [Neomycin, reference compound], for which the “Activity Type” value is recorded as “Agonist EC50 1.87 mM” and the negative logarithm of the EC50 (pEC50) was 2.73.

Regarding `NCCCCNCCCN` [Spermidine], under setting [1], the “Activity Type” value is recorded as “Agonist”.

On to Poly-L-lysine, for which the “Activity Type” value is recorded as “Agonist”.

Consider `NC[C@H]1O[C@H](O[C@H]2[C@H](O[C@@H]3O[C@H](CO)[C@@H](O)[C@H]3O)[C@@H](O)[C@H](N)C[C@@H]2N)[C@H](N)[C@@H](O)[C@@H]1O` [Ribostamycin, reference compound], for which, under setting [1], the “Activity Type” value is “Agonist”.

Regarding `N[C@@H](CP(=O)(O)O)C(=O)O` (stereo in doubt) [2-Amino-3-phosphonopropionic acid], under setting [1], the “Activity Type” value is reported as “Agonist”.

Turning to `NC(CCCCC(=O)O)C(=O)O` (racemic) [(±)-2-Aminopimelic acid], the “Activity Type” value is on record as “Agonist”.

As to `N[C@@H](CCC(=O)N[C@@H](CSCCO)C(=O)NCC(=O)O)C(=O)O` [S-(2-Hydroxyethyl)glutathione], under setting [1], the “Activity Type” value is recorded as “Agonist”.

On to `CC[C@H](NC(=O)CC[C@H](N)C(=O)O)C(=O)O`, for which, under setting [1], the “Activity Type” value is given as “Agonist”.

Consider `N[C@@H](CCC(=O)N[C@@H](CS)C(=O)O)C(=O)O` [H-Glu(Cys-OH)—OH], for which the “Activity Type” value is recorded as “Agonist”.

As for `N[C@@H](CCP(=O)(O)O)C(=O)O` (stereo in doubt) [2-Amino-4-phosphonobutyric acid], the “Activity Type” value under setting [1] is reported as “Agonist”.

In the case of `CC(C)Oc1ccc(C(CCNC(C)c2ccc(Cl)cc2)C(C)C)cc1` (centres unmarked) [N-(1-(4-chlorophenyl)ethyl)-3-(4-isopropoxyphenyl)-4-methylpentan-1-amine], the pEC50 under setting [2] was 3.87. Also, the “Activity Type” value under setting [1] is recorded as “PAM”.

Consider `N[C@@H](CC(=O)NCC(=O)O)C(=O)O` [H-Asp(Gly-OH)—OH], for which the “Activity Type” value under setting [1] is “Agonist”.

In the case of `NCCCNCCCCNCCCN` [Spermine], the “Activity Type” value is reported as “Agonist”.

Turning to `COc1ccc(C(CCNC(C)c2ccc(Cl)cc2)C(C)C)cc1` (centres unmarked) [N-(1-(4-chlorophenyl)ethyl)-3-(4-methoxyphenyl)-4-methylpentan-1-amine], the pEC50 under setting [2] was 5.84. Besides, the “Activity Type” value under setting [1] is given as “PAM”.

On to `N[C@@H](CC(=O)O)C(=O)O` [L-Aspartic acid], for which the “Activity Type” value is recorded as “Agonist EC50 4.11 mM”.

`CNC(C)[C@@H]1CC[C@@H](N)[C@@H](O[C@H]2[C@H](O)[C@@H](O[C@H]3OC[C@](C)(O)[C@H](NC)[C@H]3O)[C@H](N)C[C@@H]2N)O1` (some centres unmarked) [Gentamicin, reference compound]: under setting [3], the negative-log EC50 (pEC50) was 3.00. The “Activity Type” value under setting [1] is reported as “Agonist”.

Regarding Poly-L-ornithine, the “Activity Type” value is recorded as “Agonist EC50 0.240 mM”. The negative-log EC50 (pEC50) (read-out: EC50 (Agonist)) is 3.62.

On to `CC(NC1CCc2c(F)cc(Br)cc21)c1ccncc1` (centres unmarked) [6-bromo-4-fluoro-N-(1-(pyridin-4-yl)ethyl)-2,3-dihydro-1H-inden-1-amine], for which the “Activity Type” value under setting [1] is on record as “PAM”.

Regarding `C[C@@H](NCCCc1cccc(C(F)(F)F)c1)c1cccc2ccccc12` [Cinacalcet, reference compound], the “Activity Type” value was “PAM EC50 0.746 uM”.

Turning to `CC(NCCC(Cc1ccccc1)c1ccco1)c1ccc(Cl)cc1` (centres unmarked) [N-(1-(4-chlorophenyl)ethyl)-3-(furan-2-yl)-4-phenylbutan-1-amine], the pEC50 under setting [2] was 5.40. Further, under setting [1], the “Activity Type” value was “PAM”.

Consider `N[C@@H](CCC(=O)N[C@@H](Cc1ccccc1)C(=O)O)C(=O)O` [γ-Glu-Phe], for which the negative logarithm of the EC50 (pEC50) under setting [3] is 2.63. Under setting [1], the “Activity Type” value is given as “Agonist”.

As to `NC(CCC(=O)NC(Cc1c[nH]c2ccccc12)C(=O)O)C(=O)O` [γ-D-Glu-Trp, H-gamma-D-Glu-Trp-OH], the negative logarithm of the EC50 (pEC50) under setting [3] was 2.38. For the same compound, the “Activity Type” value under setting [1] was “Agonist”.

On to `N[C@@H](CCC(=O)N[C@@H](CCC(=O)O)C(=O)O)C(=O)O` [H-Glu(Glu-OH)—OH], for which the “Activity Type” value under setting [1] is “Agonist”.

On to `CC(C)[C@H](NC(=O)CC[C@H](N)C(=O)O)C(=O)O` [γ-Glu-Val], for which the “Activity Type” value under setting [1] is “Agonist”.

`N[C@@H](CCS(=O)(=O)O)C(=O)O` [L-Homocysteic acid]: under setting [1], the “Activity Type” value is “Agonist”.

Turning to `NC(=O)CC[C@H](NC(=O)CC[C@H](NC(=O)CC[C@H](N)C(=O)O)C(=O)O)C(=O)O` [H-Glu(Glu(Gln-OH)—OH)—OH], under setting [1], the “Activity Type” value is reported as “Agonist”.
